From patent US20240299416A1, “TREATMENT OF NF-kB-MEDIATED DISEASE” (ReveraGen BioPharma, Inc., priority 2021, published 2024)

Key:
[1] = Physician-reported adverse events, VBP15-LTE/DSUR vs published corticosteroid studies; format: in vivo, human
Protocol: Study visits took place quarterly, including assessment of clinical laboratory results, vital signs, and AEs. All AEs were coded using the Medical Dictionary for Regulatory Activities (MedDRA version 19.0) system for reporting (preferred term and system organ class). Clinical efficacy assessments were performed at baseline of the VBP15-002 study, at six months (end of VBP15-003 study), and the 12-month midpoint visit of the VBP15-LTE study.
The incidences of physician-reported AEs typically for corticosteroid treatment were determined for participants that had been treated with vamorolone 6.0 mg/kg/day (for any duration), taken from the March 2019 Data Safety Update Report (DSUR) (pharmacovigilance report). Incidence rates of Cushingoid features, weight gain, hirsutism, and behavior change were studied (Table 8).

[2] = system: boys with DMD; experiment: VBP15-004 (VISION-DMD) Phase 2b efficacy at 24 weeks; format: in vivo, human
Excerpt: (§1) The second period of 24 weeks, where all participants receive vamorolone treatment on either of the two dose levels, will continue to capture additional longer-term safety and tolerability data.

[3] = VBP15-004 adverse events at 24 weeks; design: species or system human; conditions: in vivo
Excerpt: In certain embodiments, the symptom may be an adverse event of special interest (AESI). In this context, AESIs are prespecified based on pre-defined MedDRA search criteria for eleven AESI categories for the corticosteroid class and then further stratified into AESI of at least moderate severity. The symptoms for treating DMD with corticosteroids include, but is not limited to, behavior adverse events, blood glucose related problems, gastrointestinal symptoms, increased arterial blood pressure, immune suppression/infections, skin/hair changes, cataracts/glaucoma, cushingoid features, weight gain, bone fractures, slow growth.
as §1

[4] = system: boys with DMD; experiment: VBP15-004 efficacy at Week 48; format: in vivo, human; conditions: for 6MWT, change from baseline / NSAA, change from baseline / TTRW velocity, change from baseline / TTSTAND velocity, change from baseline: 6 mg/kg/day
Protocol: (§2) Subjects already on vamorolone continued on the allocated dose level. Efficacy at Week 48 was assessed by Time to Stand ([…]) velocity, 6-Minute Walk Test (6MWT), Time to Run/Walk 10 meters (TTRW) velocity, and North Star Ambulatory Assessment (NSAA). […] In contrast, the persistence of effects with vamorolone 2 mg/kg/day was less pronounced for some parameters. The safety profile was consistent for subjects who continued on the same dose of vamorolone throughout the study, with no increase in frequency or severity of adverse events being observed over time. […] In addition, vamorolone treatment at both doses reversed the growth impairment seen during prednisone treatment and was associated with fewer adverse events, including those associated with corticosteroid use.

[5] = VBP15-004 adverse events, Treatment Period 2 / cross-over; format: in vivo, human
Protocol: as §2

[6] = biological target: T1, mineralocorticoid receptor (Homo sapiens, UniProt P08235); conditions: cited from earlier work
T1 sequence (P08235 1-984): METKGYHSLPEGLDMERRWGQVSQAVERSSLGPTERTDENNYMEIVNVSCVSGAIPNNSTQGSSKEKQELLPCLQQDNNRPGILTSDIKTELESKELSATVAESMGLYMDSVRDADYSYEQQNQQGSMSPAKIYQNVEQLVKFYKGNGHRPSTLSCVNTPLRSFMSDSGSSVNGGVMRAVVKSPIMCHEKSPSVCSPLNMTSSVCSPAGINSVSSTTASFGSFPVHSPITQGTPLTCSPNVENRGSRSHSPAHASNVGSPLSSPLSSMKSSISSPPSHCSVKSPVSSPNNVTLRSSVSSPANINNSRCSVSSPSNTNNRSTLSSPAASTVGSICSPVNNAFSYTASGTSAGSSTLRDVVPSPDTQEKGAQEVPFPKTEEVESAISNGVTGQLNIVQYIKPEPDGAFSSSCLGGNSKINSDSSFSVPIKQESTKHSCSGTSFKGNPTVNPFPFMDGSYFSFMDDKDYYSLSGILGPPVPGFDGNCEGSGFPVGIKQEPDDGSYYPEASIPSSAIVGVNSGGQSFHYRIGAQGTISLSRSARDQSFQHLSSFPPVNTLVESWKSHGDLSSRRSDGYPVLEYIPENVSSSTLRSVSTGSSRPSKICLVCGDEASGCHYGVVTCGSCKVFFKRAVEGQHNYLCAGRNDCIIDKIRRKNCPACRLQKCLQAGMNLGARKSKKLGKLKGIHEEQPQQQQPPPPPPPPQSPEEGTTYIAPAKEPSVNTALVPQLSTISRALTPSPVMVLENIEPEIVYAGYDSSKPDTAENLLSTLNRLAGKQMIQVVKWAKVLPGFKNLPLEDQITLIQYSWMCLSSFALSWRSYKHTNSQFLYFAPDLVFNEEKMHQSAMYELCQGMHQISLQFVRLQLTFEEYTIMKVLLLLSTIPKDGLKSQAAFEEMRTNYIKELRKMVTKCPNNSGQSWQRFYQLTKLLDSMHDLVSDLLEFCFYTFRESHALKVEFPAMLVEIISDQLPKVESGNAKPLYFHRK

[7] = 6.0 mg/kg/day vamorolone, any duration, DSUR Mar. 2019
[8] = Treatment Period 2 after switch from prednisone to vamorolone 6 mg/kg/day
[9] = after switch from prednisone to vamorolone 6 mg/kg/day

C[C@@H]1C[C@H]2[C@@H]3CCC4=CC(=O)C=C[C@]4(C)C3=CC[C@]2(C)[C@@]1(O)C(=O)CO [Vamorolone, 17α,21-dihydroxy-16α-methylpregna-1,4,9(11)-triene-3,20-dione]
Incidence of Cushingoid [1, 7]: 2.6%
Incidence of behavior change [1, 7]: 0%^2
Incidence of hypertrichosis/hirsutism [1, 7]: 0%
Incidence of weight gain [1, 7]: 13.2%
Cushingoid features among the 14 probably/definitely related AEs ([1]; VBP15-LTE, DSMB report): 1
TEAEs deemed definitely related ([1]; VBP15-LTE, DSMB report): three
TEAEs deemed possibly related ([1]; VBP15-LTE, DSMB report): 29
TEAEs deemed probably related ([1]; VBP15-LTE, DSMB report): 11
TEAEs deemed remotely related ([1]; VBP15-LTE, DSMB report): 37
TEAEs deemed unrelated ([1]; VBP15-LTE, DSMB report): 402
increased appetite among the 14 probably/definitely related AEs ([1]; VBP15-LTE, DSMB report): 2
irritability among the 14 probably/definitely related AEs ([1]; VBP15-LTE, DSMB report): 1
serious AEs (all deemed unrelated to study drug) ([1]; VBP15-LTE, DSMB report): three
weight gain among the 14 probably/definitely related AEs ([1]; VBP15-LTE, DSMB report): 10
6MWT versus placebo ([2]; 2 mg/kg/day, 24 weeks, p=0.009): superiority
TTSTAND velocity versus placebo ([2]; 2 mg/kg/day, 24 weeks, p=0.02): superiority
TTSTAND ([2]; 6 mg/kg/day group, baseline): 6.0 s
efficacy endpoints versus prednisone ([2]; 6 mg/kg/day vs prednisone 0.75 mg/kg/day, 24 weeks): no statistically significant differences
TTRW versus placebo ([2]; 6 mg/kg/day, 24 weeks, p=0.002): superiority
6MWT versus placebo ([2]; 6 mg/kg/day, 24 weeks, p=0.003): superiority
clinically relevant psychiatric events, subjects [3]: no vamorolone-treated subjects
Aggression, any severity, F ([3]; male, human, 24 weeks): 1
Agitation, any severity, F ([3]; male, human, 24 weeks): 1
Anxiety, any severity, F ([3]; male, human, 24 weeks): 1
Any Behavior AESI, moderate/severe, F ([3]; male, human, 24 weeks): 1
Irritability, any severity, F ([3]; male, human, 24 weeks): 3
Mood altered, any severity, F ([3]; male, human, 24 weeks): 1
Poor quality sleep, any severity, F ([3]; male, human, 24 weeks): 1
Psychomotor hyperactivity, any severity, F ([3]; male, human, 24 weeks): 2
Serious adverse events, F ([3]; male, human, 24 weeks): 1
Skin laceration, any severity, F ([3]; male, human, 24 weeks): 1
Skin laceration, moderate/severe, F ([3]; male, human, 24 weeks): 1
Sleep disorder, any severity, F ([3]; male, human, 24 weeks): 1
moderate/severe behavior problems, subjects ([3]; male, human, 24 weeks): 1.7%
6MWT, change from baseline ([4]; Week 24): 37 meters
NSAA, change from baseline ([4]; Week 24): 3.4 points
TTRW velocity, change from baseline ([4]; Week 24): 0.29 m/s
TTSTAND velocity, change from baseline ([4]; Week 24): 0.052 rises/s
6MWT, change from baseline ([4]; Week 48): 48 meters
NSAA, change from baseline ([4]; Week 48): 3.5 points
TTRW velocity, change from baseline ([4]; Week 48): 0.23 m/s
TTSTAND velocity, change from baseline ([4]; Week 48): 0.045 rises/s
6MWT distance [4, 8]: 408 meters
NSAA [4, 8]: 26.2 points
TTRW velocity [4, 8]: 2.20 m/s
TTSTAND velocity [4, 8]: 0.27 rises/s
serious adverse events reported during vamorolone treatment ([5]; Treatment Period 2): Three
number of adverse events [5, 9]: 44
number of adverse events reported as behavioral disorders [5, 9]: 6
number of adverse events typically associated with corticosteroids [5, 9]: 16
reduction in number of adverse events [5, 9]: 37%
reduction in number of adverse events typically associated with corticosteroids [5, 9]: 60%
overall safety and tolerability in clinical studies ([5]; in vivo): generally safe and well-tolerated
activity at the mineralocorticoid receptor [6]: potent antagonist
